The record followed here is patent US7829560B2, “1,4-disubstituted naphthalenes as inhibitors of P38 MAP kinase” (Arqule, Inc., priority 2004, dated 2010).

For data set [1], the system named is TNFα release from THP-1 cells. The data set is described as follows: Inhibition of TNFα release from LPS-stimulated THP-1 cells, ELISA. It is filed as cell-based. To be noted: Homo sapiens, THP-1, THP-1 cells, read-out: [CELL] THP-1, IC50, TNF ALPHA, ELISA. An outline of the steps:
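Human THP-1 monocytes, 10^6 cells/ml in RPMI with 10% FBS, no serum or 1% HSA, preincubated 30 min at 37 °C with compound (≤0.5% DMSO), then stimulated with 10 μg/ml LPS for 18 h. Supernatant TNFα measured by ELISA; IC50 from non-linear dose-response regression.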

Data set [2] deals with T1, p38α (Homo sapiens, UniProt Q16539).
T1 construct: p38 MAP Kinases are recombinant human full-length proteins with an amino-terminal GST fusion; GST (N); purchased Upstate Biotechnology Inc; host or cells: E. coli
The data set is described as follows: p38 MAP Kinase assay: inhibition of ATF2 phosphorylation, ELISA. To be noted: for IC50: ATF2 phosphorylation, read-out: [ENZ] P38 ALPHA, IC50, ELISA; for inhibition at 10 µM: substrate ATF2, read-out: [ENZ] P38 ALPHA, PCT INH, ELISA (10 uM;ATF2) (Percent). The data set is classed as biochemical. An outline of the steps: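 GST-tagged full-length human p38 MAP kinase with GST-ATF2 (aa 19–96; 1.25 μM) and 40 μM ATP in HEPES pH 7.5 buffer, without (Method I) or with (Method II) 1% human serum albumin. Compound pre-incubated 15 min at room temperature; reaction 30 min at 37 °C; ATF2 Thr69 phosphorylation measured by ELISA (A450).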
(In an ELISA, binding on a coated surface is turned into a signal by an enzyme label.)

T1 sequence (Q16539 whole entry, the tested form may be a part): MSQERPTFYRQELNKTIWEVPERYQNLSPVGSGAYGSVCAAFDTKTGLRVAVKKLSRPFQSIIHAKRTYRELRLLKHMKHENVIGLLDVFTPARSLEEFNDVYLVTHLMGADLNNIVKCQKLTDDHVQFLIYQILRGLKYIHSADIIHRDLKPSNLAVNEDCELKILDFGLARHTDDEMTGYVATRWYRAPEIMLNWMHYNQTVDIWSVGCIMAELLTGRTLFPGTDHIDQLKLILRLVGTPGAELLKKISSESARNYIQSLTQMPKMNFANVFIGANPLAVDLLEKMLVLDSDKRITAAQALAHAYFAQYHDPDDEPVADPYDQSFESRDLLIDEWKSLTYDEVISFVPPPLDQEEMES

With `COc1cccc(C(=O)Nc2ccc(OCCN3CCOCC3)c3ccccc23)c1` [Compound B60, 3-Methoxy-N-[4-(2-morpholin-4-ylethoxy)-1-naphthyl]benzamide], the melting point is 105 to 107 °C. Further, the concentration for half-maximal inhibition (IC50) in data set [1] was more than 10000 nM. The IC50 in data set [2] worked out at 7810 nM.

Consider `CC(C)(C)Oc1cccc(C(=O)Nc2ccc(OCCN3CCOCC3)c3ccccc23)c1` [Compound B65, 3-tert-Butoxy-N-[4-(2-morpholin-4-yl-ethoxy)-naphthalen-1-yl]-benzamide], for which the melting point was 50 to 51 °C. Moreover, in data set [1], the IC50 came to 3420 nM. Further, in data set [2], the IC50 worked out at 614 nM.

Compound `O=C(Nc1ccc(OCCN2CCOCC2)c2ccccc12)c1cc(F)cc(N2CCCCC2)c1` [Compound B66, 3-Fluoro-N-[4-(2-morpholin-4-ylethoxy)-1-naphthyl]-5-piperidin-1-ylbenzamide] had a melting point of 150 to 151 °C. The concentration for half-maximal inhibition (IC50) in data set [1] is 6050 nM. Further, the IC50 in data set [2] was 112 nM.

Turning to `O=C(Nc1ccc(OCCN2CCOCC2)c2ccccc12)c1cc(F)cc(N2CCCCCC2)c1` [Compound B67, 3-Azepan-1-yl-5-fluoro-N-[4-(2-morpholin-4-ylethoxy)-1-naphthyl]benzamide], the melting point was 142 to 144 °C. Also, the 50% inhibitory concentration (IC50) in data set [1] was 9080 nM. Moreover, in data set [2], the inhibition at 10 µM amounted to 85% and the 50% inhibitory concentration (IC50) worked out at 620 nM.

In turn, `O=C(Nc1ccc(OCCCN2CCOCC2)c2ccccc12)c1cc(F)cc(N2CCCCC2)c1` [Compound B161, 3-Fluoro-N-[4-(3-morpholin-4-yl-propoxy)-naphthalen-1-yl]-5-piperidin-1-yl-benzamide] had a melting point of 70 to 72 °C. The half-maximal inhibitory concentration (IC50) in data set [1] was more than 10000 nM. Moreover, in data set [2], the inhibition at 10 µM amounted to 84% and the concentration for half-maximal inhibition (IC50) is 1100 nM.

`CC(=O)N1CCN(CCCOc2ccc(NC(=O)c3cc(F)cc(N4CCCCC4)c3)c3ccccc23)CC1` [Compound B165, N-{4-[3-(4-Acetyl-piperazin-1-yl)-propoxy]-naphthalen-1-yl}-3-fluoro-5-piperidin-1-yl-benzamide] displayed a melting point of 210 to 211 °C. For the same compound, the IC50 in data set [1] is more than 10000 nM. In addition, in data set [2], the inhibition at 10 µM was 84% and the IC50 is 997 nM.

`O=C(Nc1ccc(OCCN2CCOCC2)c2ccccc12)c1cccc(N2CCOCC2)c1` [Compound B169, 3-Morpholin-4-yl-N-[4-(2-morpholin-4-yl-ethoxy)-naphthalen-1-yl]-benzamide] registered a melting point of 90 to 92 °C. Moreover, the 50% inhibitory concentration (IC50) in data set [1] was 1330 nM. For the same compound, in data set [2], the inhibition at 10 µM came to 77.5% and the IC50 was found to be 2070 nM.

The compound `O=C1CN(CCCOc2ccc(NC(=O)c3cc(F)cc(N4CCCCC4)c3)c3ccccc23)CCN1` [Compound B175, 3-Fluoro-N-{4-[3-(3-oxo-piperazin-1-yl)-propoxy]-naphthalen-1-yl}-5-piperidin-1-yl-benzamide] registered a melting point of 90 to 92 °C. Further, in data set [1], the concentration for half-maximal inhibition (IC50) is more than 10000 nM. For the same compound, the IC50 in data set [2] came to 1110 nM.

Regarding `COc1ccc(CCOc2ccc(NC(=O)c3cc(F)cc(N4CCCCC4)c3)c3ccccc23)cc1OC` [Compound B179, N-{4-[2-(3,4-Dimethoxyphenyl)ethoxy]-1-naphthyl}-3-fluoro-5-piperidin-1-ylbenzamide], the melting point was in the range of 158 to 160 °C. Also, the IC50 in data set [1] came out at 2050 nM. In data set [2], the 50% inhibitory concentration (IC50) was determined as 1060 nM.

`O=C(Nc1ccc(OCCCN2CCCC2=O)c2ccccc12)c1cc(F)cc(N2CCCCC2)c1` [Compound B182, 3-Fluoro-N-{4-[3-(2-oxopyrrolidin-1-yl)propoxy]-1-naphthyl}-5-piperidin-1-ylbenzamide] showed a melting point of 88 to 89 °C. The IC50 in data set [1] was more than 10000 nM. Further, the concentration for half-maximal inhibition (IC50) in data set [2] amounted to 587 nM.

`O=C(Nc1ccc(OCCCN2CCNCC2)c2ccccc12)c1cc(F)cc(N2CCCCC2)c1` [Compound B183, 3-Fluoro-N-[4-(3-piperazin-1-yl-propoxy)-naphthalen-1-yl]-5-piperidin-1-yl-benzamide] displayed a melting point of 70 to 72 °C. In addition, the IC50 in data set [1] is more than 10000 nM. Further, the concentration for half-maximal inhibition (IC50) in data set [2] worked out at 1140 nM.

In the case of `CC1CCN(c2cc(F)cc(C(=O)Nc3ccc(OCCN4CCOCC4)c4ccccc34)c2)CC1` [Compound B184, 3-Fluoro-5-(4-methylpiperidin-1-yl)-N-[4-(2-morpholin-4-ylethoxy)-1-naphthyl]benzamide], the melting point lay in the range of 116 to 118 °C. For the same compound, the half-inhibitory concentration (IC50) in data set [1] was 6990 nM. In addition, the 50% inhibitory concentration (IC50) in data set [2] was found to be 1070 nM.

The compound `COc1ccc(CCOc2ccc(NC(=O)c3cc(F)cc(N4CCOCC4)c3)c3ccccc23)cc1OC` [Compound B189, N-{4-[2-(3,4-Dimethoxyphenyl)ethoxy]-1-naphthyl}-3-fluoro-5-morpholin-4-ylbenzamide] registered a melting point of 73 to 75 °C. Further, the IC50 in data set [1] was 2610 nM. Moreover, the IC50 in data set [2] was 441 nM.

The compound `O=C(Nc1ccc(OCCc2cccnc2)c2ccccc12)c1cc(F)cc(N2CCOCC2)c1` [Compound B190] had a melting point of 80 to 82 °C. Besides, the half-inhibitory concentration (IC50) in data set [1] came out at 7520 nM. For the same compound, in data set [2], the concentration for half-maximal inhibition (IC50) was 826 nM.

For the compound `CCC1CCC(Oc2cc(F)cc(C(=O)Nc3ccc(OCCN4CCOCC4)c4ccccc34)c2)CC1` (stereo not shown) [Compound B194, 3-[(4-Ethylcyclohexyl)oxy]-5-fluoro-N-[4-(2-morpholin-4-ylethoxy)-1-naphthyl]benzamide], the melting point was in the range of 102 to 105 °C. In data set [1], the IC50 was more than 10000 nM. For the same compound, the IC50 in data set [2] turned out to be 9280 nM.

In the case of `O=C(Nc1ccc(OCCN2CCOCC2)c2ccccc12)c1cc(F)cc(OC2CCCCC2)c1` [Compound B195, 3-(Cyclohexyloxy)-5-fluoro-N-[4-(2-morpholin-4-ylethoxy)-1-naphthyl]benzamide], the melting point lay within 116 to 118 °C. Besides, in data set [1], the IC50 is more than 10000 nM. The half-maximal inhibitory concentration (IC50) in data set [2] was 413 nM.

Compound `CC1CCCN(c2cc(F)cc(C(=O)Nc3ccc(OCCN4CCOCC4)c4ccccc34)c2)C1` (stereo not shown) [Compound B202, 3-Fluoro-5-(3-methylpiperidin-1-yl)-N-[4-(2-morpholin-4-ylethoxy)-1-naphthyl]benzamide] gave a melting point of 145 to 148 °C. The half-inhibitory concentration (IC50) in data set [1] stood at 9330 nM. In addition, the 50% inhibitory concentration (IC50) in data set [2] came to 291 nM.

On to `CCN(C)c1cc(F)cc(C(=O)Nc2ccc(OCCN3CCOCC3)c3ccccc23)c1` [Compound B207, 3-[Ethyl(methyl)amino]-5-fluoro-N-[4-(2-morpholin-4-ylethoxy)-1-naphthyl]benzamide], for which the melting point lay within 126 to 128 °C. In data set [1], the IC50 was more than 10000 nM. Also, the IC50 in data set [2] was found to be 1120 nM.

In turn, `CC1CCCN1c1cc(F)cc(C(=O)Nc2ccc(OCCN3CCOCC3)c3ccccc23)c1` (stereo not shown) [Compound B208, 3-Fluoro-5-(2-methylpyrrolidin-1-yl)-N-[4-(2-morpholin-4-ylethoxy)-1-naphthyl]benzamide] registered a melting point of 108 to 111 °C. In data set [1], the half-maximal inhibitory concentration (IC50) turned out to be 3640 nM. Besides, the 50% inhibitory concentration (IC50) in data set [2] amounted to 167 nM.

As to `CC(C)CN(C)c1cc(F)cc(C(=O)Nc2ccc(OCCN3CCOCC3)c3ccccc23)c1` [Compound B210, 3-Fluoro-5-[isobutyl(methyl)amino]-N-[4-(2-morpholin-4-ylethoxy)-1-naphthyl]benzamide], the melting point was in the range of 126 to 128 °C. Also, in data set [1], the 50% inhibitory concentration (IC50) was more than 10000 nM. For the same compound, the half-inhibitory concentration (IC50) in data set [2] came to 1300 nM.

For orientation: IC50 means the point on the concentration scale where inhibition reaches its midpoint. A word on the melting point: it is the temperature, or range, at which the solid turns liquid.
